Measured values as given in patent publication US20220274947A1, “NOVEL HETEROARYL-TRIAZOLE COMPOUNDS AS PESTICIDES” (Bayer Aktiengesellschaft, priority 2019, published 2022).

Columns and labels:
Assay type in all cases: in vivo
[1] = tested on: Rhipicephalus microplus; test: Rhipicephalus (Boophilus) microplus injection test (BOOPMI Inj); conditions: 168 h, injection into adult engorged female ticks, egg deposition after 7 days, read-out: activity (efficacy: 100% means all eggs are infertile); for pest or weed control at 0.004 mg: application rate 4 μg/tick; for pest or weed control at 0.02 mg: application rate 20 μg/tick
In short: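 Compound in DMSO, 1 μL, injected abdominally into five adult engorged females, which were then held in a climate chamber. Read-out is egg fertility, scored from deposition at 7 days, with unclear eggs followed to hatching (~42 days); 0% means all eggs fertile, 100% all infertile.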

[2] = tested on: Rhipicephalus microplus; test: Rhipicephalus (Boophilus) microplus in-vitro contact test, larval cattle tick, strain Parkhurst (BOOPMI Cont); conditions: application rate 5 μg/cm^2 (=500 g/ha), tick larvae, after 48 hours, read-out: activity (efficacy: 100% means all larvae are dead or moribund)
In short: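 After 48 h at 27° C. and 85% humidity, percent dead or moribund larvae was scored from negative geotactic behaviour. Larvae (20-50, Parkhurst strain, synthetic pyrethroid-resistant) were exposed in tubes coated with compound from acetone, 900 ppm corresponding to 5 μg/cm^2.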

[3] = tested on: Ctenocephalides felis; test: Ctenocephalides felis in-vitro contact test, adult cat flea (CTECFE Cont); conditions: application rate 5 μg/cm^2 (=500 g/ha), adult cat fleas, after 48 hours, read-out: activity (efficacy: 100% means all fleas are dead or moribund)
In short: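 Efficacy, as percent of fleas dead or moribund, was scored 48 h after adults (5-10 per tube) were placed in glass tubes whose walls carried dried compound at 5 μg/cm^2 (900 ppm solution). Moribund meant failing to climb away from a 45-50° C. hot plate within 5 min.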

[4] = tested on: Ctenocephalides felis; test: Ctenocephalides felis oral test (CTECFE Oral); conditions: 48 h, read-out: activity (mortality)
In short: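 Percent mortality was recorded 2 days after roughly 20 adult Ctenocephalides felis fed on treated cattle blood. The blood was warmed to 37 °C beneath a parafilm membrane, with the fleas kept at room temperature. Compound was dissolved in DMSO and diluted into the blood to test concentration.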

[5] = tested on: Diabrotica balteata; test: Diabrotica balteata spray test; conditions: 168 h, application rate 100 g/ha (=32 μg/well), wheat seeds, larvae, after 7 days, read-out: activity (efficacy: 100% means all seedlings have grown up like in the untreated, uninfected control)
In short: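 Efficacy (%) was scored 7 days after spraying, with 100% meaning growth like the untreated, uninfected control and 0% meaning no seedling grew. Spray solutions of compound in acetone/DMF with emulsifier-containing water went onto 1-day-germinated wheat seeds, and each unit was then infested with 10-20 banded cucumber beetle larvae.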

[6] = tested on: Myzus persicae; test: Myzus persicae spray test; conditions: in Brassica rapa, foliar, 120 h, read-out: activity (mortality), application rate 100 g/ha, spray, Chinese cabbage leaf disks, after 5 days
In short: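 Aphid mortality in % was assessed 5 days after spraying; leaf disks of Brassica pekinensis carrying mixed-instar green peach aphids were treated. Spray preparation: active compound in acetone plus dimethylformamide, diluted with emulsifier-containing water (1000 ppm).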

[7] = tested on: Spodoptera frugiperda; test: Spodoptera frugiperda spray test; conditions: in Zea mays, 168 h, read-out: activity (mortality)
In short: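 Percent kill of fall armyworm caterpillars was assessed 7 days after infesting dried, treated maize leaf sections. Treatment was a spray of compound in acetone/dimethylformamide, diluted with water containing emulsifier at 1000 ppm.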

Cc1nc([C@H](C)NC(=O)c2cc(C#N)cc(C(F)(F)F)c2)n(-c2ccc(C#N)cn2)n1 [II-53]
pest or weed control at 0.004 mg [1]: 100% | pest or weed control at 0.02 mg [1]: 100% | pest or weed control at 5 µg/cm2 [2]: 100% | pest or weed control at 5 µg/cm2 [3]: 100% | mortality at 100 ppm [4]: 100% | pest or weed control at 32 µg/disc, 100 g/ha [5]: 100% | mortality at 100 g/ha [6]: 100% | mortality at 100 g/ha [7]: 100%

Cc1nc([C@H](C)NC(=O)c2cc(Br)cc(C#N)c2)n(-c2ccc(C#N)cn2)n1 [II-54]
pest or weed control at 0.004 mg [1]: 100% | pest or weed control at 0.02 mg [1]: 100% | pest or weed control at 5 µg/cm2 [2]: 100% | pest or weed control at 5 µg/cm2 [3]: 100% | mortality at 100 ppm [4]: 90% | pest or weed control at 32 µg/disc, 100 g/ha [5]: 100% | mortality at 100 g/ha [6]: 90% | mortality at 100 g/ha [7]: 100%

Cc1nc([C@H](C)NC(=O)c2cc(Cl)cc(C#N)c2)n(-c2ccc(C#N)cn2)n1 [II-61]
pest or weed control at 0.004 mg [1]: 100% | pest or weed control at 0.02 mg [1]: 100% | pest or weed control at 5 µg/cm2 [2]: 100% | pest or weed control at 5 µg/cm2 [3]: 100% | mortality at 100 ppm [4]: 100% | pest or weed control at 32 µg/disc, 100 g/ha [5]: 100% | mortality at 100 g/ha [6]: 90% | mortality at 100 g/ha [7]: 100%

Cc1nc([C@H](C)NC(=O)c2cc(Cl)nc(C(F)(F)F)c2)n(-c2ccc(C#N)cn2)n1 [II-62]
pest or weed control at 0.004 mg [1]: 100% | pest or weed control at 0.02 mg [1]: 100% | pest or weed control at 5 µg/cm2 [2]: 100% | pest or weed control at 5 µg/cm2 [3]: 100% | mortality at 100 ppm [4]: 100% | pest or weed control at 32 µg/disc, 100 g/ha [5]: 100% | mortality at 100 g/ha [6]: 100% | mortality at 100 g/ha [7]: 100%

Cc1nc([C@H](C)NC(=O)c2cc(Cl)cc(C(F)F)c2)n(-c2ccc(C#N)cn2)n1 [II-65]
pest or weed control at 0.004 mg [1]: 100% | pest or weed control at 0.02 mg [1]: 100% | pest or weed control at 5 µg/cm2 [2]: 100% | pest or weed control at 5 µg/cm2 [3]: 100% | mortality at 100 ppm [4]: 100% | pest or weed control at 32 µg/disc, 100 g/ha [5]: 80% | mortality at 100 g/ha [6]: 90% | mortality at 100 g/ha [7]: 100%

C[C@H](NC(=O)c1cc(OC(F)F)cc(OC(F)F)c1)c1ncnn1-c1ccc(C#N)cn1 [II-77]
pest or weed control at 0.004 mg [1]: 80% | pest or weed control at 5 µg/cm2 [2]: 90% | pest or weed control at 5 µg/cm2 [3]: 100% | mortality at 100 ppm [4]: 100% | pest or weed control at 32 µg/disc, 100 g/ha [5]: 100% | mortality at 100 g/ha [6]: 90% | mortality at 100 g/ha [7]: 100%

C[C@H](NC(=O)c1cc(Cl)cc(C(F)(F)F)c1)c1ncnn1-c1ccc(N(C)C(=O)C2CC2)cn1 [II-79]
pest or weed control at 0.004 mg [1]: 100% | pest or weed control at 5 µg/cm2 [2]: 100% | pest or weed control at 5 µg/cm2 [3]: 100% | mortality at 100 ppm [4]: 100% | pest or weed control at 32 µg/disc, 100 g/ha [5]: 100% | mortality at 100 g/ha [6]: 100% | mortality at 100 g/ha [7]: 100%

C[C@H](NC(=O)c1cc(C(F)(F)F)cc(C(F)(F)F)c1)c1ncnn1-c1ccc(C(N)=O)cn1 [II-81]
pest or weed control at 0.004 mg [1]: 100% | pest or weed control at 5 µg/cm2 [2]: 100% | pest or weed control at 5 µg/cm2 [3]: 100% | mortality at 100 ppm [4]: 100% | pest or weed control at 32 µg/disc, 100 g/ha [5]: 80% | mortality at 100 g/ha [6]: 90% | mortality at 100 g/ha [7]: 100%

C[C@H](NC(=O)c1cc(Br)cc(C(F)F)c1)c1ncnn1-c1ccc(C#N)cn1 [II-83]
pest or weed control at 0.004 mg [1]: 100% | pest or weed control at 5 µg/cm2 [2]: 90% | pest or weed control at 5 µg/cm2 [3]: 100% | mortality at 100 ppm [4]: 100% | pest or weed control at 32 µg/disc, 100 g/ha [5]: 100% | mortality at 100 g/ha [6]: 90% | mortality at 100 g/ha [7]: 100%

Cc1nc([C@H](C)NC(=O)c2cc(C(F)(F)F)cc(C(F)(F)F)c2)n(-c2ccc(C(=O)N(C)C3CC3)cn2)n1 [II-96]
pest or weed control at 0.004 mg [1]: 100% | pest or weed control at 5 µg/cm2 [2]: 100% | pest or weed control at 5 µg/cm2 [3]: 100% | mortality at 100 ppm [4]: 100% | pest or weed control at 32 µg/disc, 100 g/ha [5]: 100% | mortality at 100 g/ha [6]: 90% | mortality at 100 g/ha [7]: 100%

CCN(C)C(=O)c1ccc(-n2nc(C)nc2[C@H](C)NC(=O)c2cc(C(F)(F)F)cc(C(F)(F)F)c2)nc1 [II-97]
pest or weed control at 0.004 mg [1]: 100% | pest or weed control at 5 µg/cm2 [2]: 100% | pest or weed control at 5 µg/cm2 [3]: 100% | mortality at 100 ppm [4]: 100% | pest or weed control at 32 µg/disc, 100 g/ha [5]: 100% | mortality at 100 g/ha [6]: 100% | mortality at 100 g/ha [7]: 100%
